Data set [1] can be described thus: Pharmacokinetic study, 3-period crossover, plasma concentrations of Compound A by LC-MS/MS. The format is in vivo, human. As to conditions: for AUC(0-inf) / AUC(0-t): human, plasma, oral, 50 mg, pediatric formulation, 50 mg single dose; for AUC(0-inf): read-out: AUC0-inf, mean; for AUC(0-t): read-out: AUC0-t, mean. The protocol: (§1) In this single center, open-label, randomized study, 24 subjects (8 per each arm) received Compound A adult immediate release tablet or granular formulation suitable for reconstitution formulation in a fasted or fed state (high fat meal) in a 3-period, 3-sequence crossover design. Compound A was formulated as a granular formulation suitable for reconstitution (“Compound A pediatric formulation”) as described herein.
(§2) A 50 mg dose was used in this adult PK study.
For each study period, subjects received one of the 3 following treatments:
(§3) Treatment A: Single doses of 50 mg Compound A pediatric formulation (1 sachet of granules) under fed conditions.
(§4) Treatment B: Single doses of 50 mg Compound A pediatric formulation (1 sachet of granules) under fasting conditions.
(§5) Treatment C: Single doses of 50 mg Compound A adult tablet formulation (1×50 mg IR tablet) under fasting conditions.
Three groups of 8 subjects were randomized to one of the following 3 sequences.
Following an overnight fast of at least 10 hours, subjects received a standardized high-fat, high calorie meal 30 minutes before administration. Subjects must have eaten the total content of this meal in 30 minutes or less.
Thirty minutes after the start of breakfast, subjects were administered the suspension (the contents of one sachet of the Compound A pediatric formulation [granules for oral suspension] was mixed thoroughly with 120 mL of water at ambient temperature). Thereafter, the glass was rinsed twice with approximately 60 mL of water at ambient temperature and the subject was asked to drink the 60 mL of suspension each time. A total of approximately 240 mL of water was administered with the formulation within 5 minutes.
Additional food was then withheld for at least 4 hours following administration. Water was provided as needed until 1 hour pre-dose. Water was allowed beginning 1 hour after the administration of the drug.
Subjects fasted overnight for a minimum of 10 hours prior to dosing.
Subjects were administered the Compound A suspension (the contents of one sachet [granules for oral suspension] was mixed thoroughly with 120 mL of water at ambient temperature). Thereafter, the glass was rinsed twice with approximately 60 mL of water at ambient temperature and the subject was asked to drink the 60 mL of suspension each time. A total of approximately 240 mL of water was administered with the formulation within 5 minutes.
Fasting continued for at least 4 hours following Compound A administration. Water was provided as needed until 1 hour pre-dose. Water was allowed beginning 1 hour after the administration of the drug.
A single dose of the Compound A IR tablet was administered with approximately 240 mL of water, starting at 09:00, to 1 subject per 2 minute intervals.
Fasting continued for at least 4 hours following administration. Water was provided as needed until 1 hour pre-dose. Water was allowed beginning 1 hour after the administration of the drug.
Serial PK samples were obtained pre-dose and at specific timepoints through 48 h post-dose Plasma concentrations of Compound A were determined using validated liquid chromatography with tandem mass spectrometry method.

Data set [2] in a line: Pharmacokinetic study, urinary excretion of unchanged Compound A. The class given is in vivo, human. Conditions: for CL renal: human, urine, oral, 50 mg. Here is the method: as §1, §2, §3, §4, §5
Overall (based on data from Cohorts 1 and 2), the fraction excreted in urine is less than 0.1%, thus the contribution of the urinary excretion in the disposition and elimination of the Compound A as a parent compound is negligible. The PK and statistical analysis were performed including all subjects with measurable pre-dose concentrations.

The mark [3] stands for this setting: pediatric formulation 50 mg, fed vs fasted.

The source of these data is US20230404913A1, “PHARMACEUTICAL FORMULATIONS FOR TREATING DISEASES ASSOCIATED WITH VOLTAGE-GATED SODIUM CHANNELS” (Xenon Pharmaceuticals, Inc., priority 2020, published 2023).

SMILES strings stand for the structures. Like-named read-outs stand apart in the source and are kept apart here.

In the case of `Cc1cc(S(=O)(=O)Nc2cscn2)c(F)cc1N(C)[C@H]1CCN(Cc2ccccc2)C1` [Compound A, (S)-4-((1-benzylpyrrolidin-3-yl)(methyl)amino)-2-fluoro-5-methyl-N-(thiazol-4-yl)benzenesulfonamide], in data set [1] (fasting), the AUC(0-inf) was 11300 ng·h/mL and the AUC(0-t) amounted to 11100 ng·h/mL. In data set [1] (fed (high-fat meal)), the AUC(0-inf) was 11800 ng·h/mL and the AUC(0-t) is 11700 ng·h/mL. Also, in data set [1] (setting [3]), the “intra-subject CV % for AUC0-inf” value is recorded as 9% and the “intra-subject CV % for AUC0-t” value was found to be 11%. The “GMR for AUC0-inf” value in data set [1] (pediatric formulation 50 mg, fed vs fasted, 90% CI 97.98-107.58%) is reported as 102.67%. In addition, in data set [1] (pediatric formulation 50 mg, fed vs fasted, 90% CI 98.23-109.57%), the “GMR for AUC0-t” value is listed as 103.74%. In addition, in data set [2] (pediatric formulation 50 mg, fasting), the CL renal is 0.05 mL/min. Further, the CL renal in data set [2] (pediatric formulation 50 mg, fed) is 0.055 mL/min. Besides, in data set [2] (overall, based on data from Cohorts 1 and 2), the “fraction excreted in urine” value is “less than 0.1%”. The “GMR for CLr” value in data set [2] (pediatric formulation 50 mg, fed vs fasting) is recorded as 115.56%.
